The source of these data is patent publication US12344616B2, “Factor XIa inhibitors” (Merck Sharp & Dohme LLC, priority 2018, dated 2025).

For orientation: IC50 means the concentration at which inhibition is half-maximal. A lower IC50 goes with greater potency. Usually MRT stands for a mean duration of stay, worked out from the concentration-time curve.

Series [1] concerns the target Human plasma kallikrein (Homo sapiens (Human), UniProt P03952). Kind of series: Kallikrein assay (plasma kallikrein, pKal). Format: biochemical. The following applies: purified Human plasma kallikrein 0.5 nM, Acetyl-K-P-R-AFC substrate. The protocol: The effectiveness of a compound of the present invention as an inhibitor of Kallikrein can be determined using a relevant purified serine protease, and an appropriate synthetic substrate. The rate of hydrolysis of the chromogenic or fluorogenic substrate by the relevant serine protease was measured both in the absence and presence of compounds of the present invention. Assays were conducted at room temperature or at 37° C. […] A decrease in the rate of fluorescence change in the presence of inhibitor is indicative of enzyme inhibition. Such methods are known to one skilled in the art. […] Determinations were made using purified Human plasma kallikrein at a final concentration of 0.5 nM (Enzyme Research Laboratories) and the synthetic substrate, Acetyl-K—P—R-AFC (Sigma #C6608) at a concentration of […].
Activity assays were performed by diluting a stock solution of substrate at least tenfold to a final concentration ≤0.2 Km into a solution containing enzyme or enzyme equilibrated with inhibitor. Times required to achieve equilibration between enzyme and inhibitor were determined in control experiments. The reactions were performed under linear progress curve conditions and fluorescence increase measured at 405 Ex/510 Em nm. Values were converted to percent inhibition of the control reaction (after subtracting 100% Inhibition value). IC50 was determined by inflection point from a four parameter logistic curve fit. Ki was calculated using the Cheng Prusoff equation, Ki=IC50/(1+([S]/Km)).

Series [2] can be described thus: Dog screening IV/PO pharmacokinetics. Format: in vivo. The following applies: male, plasma, mean residence time, IV/PO procedure. The protocol: Plasma pharmacokinetic parameters for clearance, volume of distribution, half-life, mean residence time (MRT) and oral bioavailability were determined in dogs from oral administration and IV administration studies. 4 male dogs, typically weighing 8-12 kilograms, were fasted overnight prior to dosing. Compounds were prepared for oral and IV dosing by addition to a vehicle, depending on the dose used. For a typical preparation, 1 mg per mL (IV) or 1.5 mg per mL (oral) of test compound was added to vehicle comprised of 20% dimethyl sulfoxide (DMSO), 60% polyethylene glycol 400 (PEG400) and 20% water. IV formulation was administered to 2 dogs via the saphenous or cephalic vein, and oral dosing was administered to 2 dogs via oral gavage. Blood was collected by the cephalic or jugular vein, typically at predose, 2 min, 8 min, 15 min, 30 min, and 1, 2, 4, 6, 8 and 24 hr postdose for IV, and at predose, 15 min, 30 min, and 1, 2, 4, 6, 8, and 24 hr for oral dosing. Samples were collected in K2EDTA tubes, stored on ice, and centrifuged. Plasma was transferred to a micro titer plate and stored at −70° C. until analysis. Plasma samples were extracted using protein precipitation and analyzed by liquid chromatography separation followed by mass spec detection (LCMS/MS), using a standard curve for each compound. Plasma pharmacokinetic parameters were calculated for IV and oral dosing data by non-compartmental methods. Oral bioavailability was determined as the ratio of the dose-normalized plasma area under the curve (AUC) following oral dosing vs. IV dosing.

The target of series [3] is human tissue kallikrein (Homo sapiens (Human), UniProt P06870). The experiment in a line: Inhibition of tissue kallikrein enzymatic activity (tKal). Format: biochemical. The following applies: human tissue kallikrein 5 nM, N-acetyl-KPR-AFC substrate, 25° C. The method, then: Compounds were assayed with human tissue kallikrein (RayBiotech, Cat #228-10996 or Evotec, final concentration 5 nM) in 50 mM HEPES, 150 mM NaCl, 5 mM CaCl2, 0.1% PEG pH 7.4 at 25° C. in a Corning 3575 non-binding surface microplate. Compounds were tested in 10-point dose titrations starting at 166.67 uM with a 3-fold dilution series. Tissue kallikrein enzymatic activity was determined by measuring the rate of cleavage of N-acetyl-KPR-AFC substrate (Sigma, Cat #C6608, final concentration 100 uM) by continuously monitoring the fluorescence at 400/505 nm using a Tecan Safire plate-reader. The initial reaction rates (0 to 20 minutes) were used to determine percent inhibition. The % Inhibition for each data point was recalculated from the RFU/min data and analyzed using the log(inhibitor) vs. response four parameters equation with the GraphPad Prism software.

Series [4] is described as follows: Dog cassette IV pharmacokinetics. Format: in vivo. As to conditions: male, plasma, mean residence time, cassette IV procedure. The method, then:
Plasma pharmacokinetic parameters for clearance, volume of distribution, half-life, and mean residence time (MRT) were determined in dogs from IV cassette administration studies. 2 male dogs, typically weighing 8-12 kilograms, were fasted overnight prior to dosing. Compounds were prepared for IV dosing by addition to a vehicle, depending on the dose used. For a typical preparation, 1 mg per mL (IV) of up to 5 test compounds were added to vehicle comprised of 20% dimethyl sulfoxide (DMSO), 60% polyethylene glycol 400 (PEG400) and 20% water. IV formulation was administered to 2 dogs via the saphenous or cephalic vein. Blood was collected by the cephalic or jugular vein, typically at predose, 2, 8, 15, 30 min, 1, 2, 4, 6, 8 and 24 hr postdose. Samples were collected in K2EDTA tubes, stored on ice, and centrifuged. Plasma was transferred to a micro titer plate and stored at −70° C. until analysis. Plasma samples were extracted using protein precipitation and analyzed by liquid chromatography separation followed by mass spec detection (LCMS/MS), using a standard curve for each compound. Plasma pharmacokinetic parameters were calculated by non-compartmental methods.

Chain of human tissue kallikrein (P06870 25-262): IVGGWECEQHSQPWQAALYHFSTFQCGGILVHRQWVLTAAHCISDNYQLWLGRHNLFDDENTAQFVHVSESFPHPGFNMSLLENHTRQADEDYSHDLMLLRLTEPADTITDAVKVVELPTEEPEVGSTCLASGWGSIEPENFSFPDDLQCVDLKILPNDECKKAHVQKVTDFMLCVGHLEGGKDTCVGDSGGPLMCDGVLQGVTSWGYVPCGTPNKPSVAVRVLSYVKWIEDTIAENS
Chain of Human plasma kallikrein (P03952 391-638): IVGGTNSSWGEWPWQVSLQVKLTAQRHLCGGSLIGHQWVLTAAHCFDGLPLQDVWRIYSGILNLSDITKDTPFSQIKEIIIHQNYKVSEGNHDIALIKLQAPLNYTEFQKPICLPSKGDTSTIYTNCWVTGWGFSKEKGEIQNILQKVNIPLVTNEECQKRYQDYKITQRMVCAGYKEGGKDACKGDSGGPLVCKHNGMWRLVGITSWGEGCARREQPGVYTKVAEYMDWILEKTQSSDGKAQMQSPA
Chain of Human plasma kallikrein (P03952 20-390 partner): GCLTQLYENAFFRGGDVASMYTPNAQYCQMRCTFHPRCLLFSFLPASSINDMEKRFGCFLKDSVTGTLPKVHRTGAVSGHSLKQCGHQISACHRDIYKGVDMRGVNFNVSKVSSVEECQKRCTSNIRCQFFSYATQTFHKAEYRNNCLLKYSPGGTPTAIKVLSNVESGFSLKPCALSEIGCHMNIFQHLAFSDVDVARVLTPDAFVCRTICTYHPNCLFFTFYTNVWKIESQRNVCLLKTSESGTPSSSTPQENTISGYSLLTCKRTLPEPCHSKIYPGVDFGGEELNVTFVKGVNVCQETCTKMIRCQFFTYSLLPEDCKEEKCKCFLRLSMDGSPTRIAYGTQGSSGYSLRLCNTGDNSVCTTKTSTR

In turn, `COC(=O)Nc1ccc2c(c1)NC(=O)C(C)(C)CCC[C@H](c1ccc(-c3cc(Cl)cnc3OC(F)F)c[n+]1[O-])c1nc-2c(C)[nH]1` [Example 6, (R,Z)-5′-chloro-2′-(difluoromethoxy)-6-(2^4-((methoxycarbonyl)amino)-1^5,5,5-trimethyl-4-oxo-1^1H-3-aza-1(4,2)-imidazola-2(1,2)-benzenacyclononaphane-9-yl)-[3,3′-bipyridine]1-oxide] showed an IC50 in series [1] of 443 nM. The compound further showed an MRT in series [2] of 14.5 h.

Take `COC(=O)Nc1ccc2c(c1)NC(=O)C(C)(C)CCC[C@H](c1ccc(-c3c(-n4cc(C(F)(F)F)cn4)ccc(F)c3F)c[n+]1[O-])c1nc-2c(C)[nH]1` [Example 1, (R,Z)-5-(2,3-difluoro-6-(4-(trifluoromethyl)-1H-pyrazol-1-yl)phenyl)-2-(2^4-((methoxycarbonyl)amino)-1^5,5,5-trimethyl-4-oxo-1^1H-3-aza-1(4,2)-imidazola-2 (1,2)-benzenacyclononaphane-9-yl)pyridine 1-oxide]: the IC50 in series [1] was 480 nM; in series [3], greater than 167000 nM. In series [2], this compound had a mean residence time (MRT) of 10 h.

As for `COC(=O)Nc1ccc2c(c1)NC(=O)C(C)(C)CCC[C@H](c1ccc(-c3cc(F)ccc3-n3cc(C(F)(F)F)cn3)c[n+]1[O-])c1nc-2c(C)[nH]1` [Example 2, (R.Z)-5-(5-fluoro-2-(4-(trifluoromethyl)-1H-pyrazol-1-yl)phenyl)-2-(2^4-((methoxycarbonyl)amino)-1^5,5,5-trimethyl-4-oxo-1^1H-3-aza-1(4,2)-imidazola-2(1,2)-benzenacyclononaphane-9-yl)pyridine 1-oxide], the results for the IC50 in series [1] and in series [3] were 1080 nM and 90000 nM, respectively. The same compound yielded an MRT in series [2] of 11 h.

With `COC(=O)Nc1ccc2c(c1)NC(=O)C(C)(C)CCC[C@H](c1ccc(-c3cc(Cl)ccc3-n3cc(C(F)F)cn3)c[n+]1[O-])c1nc-2c(C)[nH]1` [Example 4, (R,Z)-5-(5-chloro-2-(4-(difluoromethyl)-1H-pyrazol-1-yl)phenyl)-2-(2^4-((methoxycarbonyl)amino)-1^5,5,5-trimethyl-4-oxo-1^1H-3-aza-1(4,2)-imidazola-2(1,2)-benzenacyclononaphane-9-yl)pyridine 1-oxide], the IC50 was 46 nM in series [1] and greater than 167000 nM in series [3]. This compound also gave a mean residence time MRT in series [2] of 8.7 h.

Take `COC(=O)Nc1ccc2c(c1)NC(=O)C(C)(C)CCC[C@H](c1ccc(-c3cc(F)ccc3-c3cnn(C(F)(F)F)c3)c[n+]1[O-])c1nc-2c(C)[nH]1` [Example 5, (R,Z)-5-(5-fluoro-2-(1-(trifluoromethyl)-1H-pyrazol-4-yl)phenyl)-2-(2^4-((methoxycarbonyl)amino)-1^5,5,5-trimethyl-4-oxo-1^1H-3-aza-1(4,2)-imidazola-2(1,2)-benzenacyclononaphane-9-yl)pyridine 1-oxide]: the concentration for half-maximal inhibition (IC50) in series [1] was 371 nM; in series [3] it was greater than 167000 nM. In series [2], this compound had an MRT of 10 h.

In the case of `COC(=O)Nc1ccc2c(c1)NC(=O)C(C)(C)CCC[C@H](c1ccc(-c3cc(Cl)ccc3-n3cc(C(F)(F)F)cn3)c[n+]1[O-])c1nc-2c(C)[nH]1` [Example 3], the IC50 was 42 nM in series [1] and greater than 167000 nM in series [3]. In series [4], this compound showed an MRT of 10 h.
